Measured values: patent US12065427B2, “Heterocyclic compounds capable of activating STING” (BOEHRINGER INGELHEIM INTERNATIONAL GMBH, priority 2021, dated 2024)
In brackets after ≈: the same amount, converted by molar mass.

How the values were obtained:
STING HAQ-variant = target: T1, STING HAQ-variant (Homo sapiens, UniProt Q86WV6, G230A/H232R/R293Q/R71H); assay: IRF-inducible SEAP reporter assay in THP1-Blue ISG cells, STING HAQ-variant; type: cell-based; conditions: STING HAQ-variant (parental or re-introduced), 24 hours incubation
T1 construct: parental THP1-Blue™ ISG cell lines (which express endogenously HAQ); host or cells: THP1-Blue ISG (parental, endogenous HAQ) or STING-KO clone re-transduced with HAQ (MSCV-ires-GFP-Blasti)
Outline: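 THP1-Blue ISG cells expressing STING HAQ, either endogenously (parental) or re-introduced after CRISPR knockout, were seeded at 10000 cells/well. They received 8-point compound dilutions (0.5% DMSO final) for 24 hours at 37° C. IRF-driven SEAP was read with Quanti-Blue at OD 620 nm after 30 minutes, and EC50 came from four-parameter fits.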

STING H232R-variant = target: T2, STING H232R-variant (Homo sapiens, UniProt Q86WV6, H232R); assay: IRF-inducible SEAP reporter assay in THP1-Blue ISG cells, STING H232R-variant; type: cell-based; conditions: STING H232R-variant (WT), 24 hours incubation
T2 construct: expressed in transfected cells; host or cells: THP1-Blue ISG hSTING KO clone, retroviral MSCV-ires-GFP-Blasti
Outline: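 THP1-Blue ISG cells with endogenous STING deleted by CRISPR and retrovirally re-expressing human STING H232R; 8-point compound dilutions, 0.5% DMSO final, 24 h at 37 °C. SEAP read by Quanti-Blue, 30 min, OD 620 nm; EC50 and Hill slope from four-parameter fit.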

STING R293Q-variant = target: T3, STING R293Q-variant (Homo sapiens, UniProt Q86WV6, H232R/R293Q); assay: IRF-inducible SEAP reporter assay in THP1-Blue ISG cells, STING R293Q-variant; type: cell-based; conditions: 24 hours incubation
T3 construct: expressed in transfected cells; host or cells: THP1-Blue ISG hSTING KO clone, retroviral MSCV-ires-GFP-Blasti
Outline: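 THP1-Blue ISG cells with endogenous STING knocked out (CRISPR) and retrovirally re-expressing human STING R293Q; 10000 cells/well, compound 24 h at 37 °C, 0.5% DMSO final. SEAP read by Quanti-Blue (30 min, OD 620 nm); EC50 and Hill slope from 8-point four-parameter fit.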

in vitro = conditions: human, Caco-2, pH 7.4
Procedure: Cellular Permeability Measurements
Caco-2 cells were obtained from Leibniz Institute DSMZ-German Collection of Microorganisms and Cell Cultures (Braunschweig, Germany) and cultured in DMEM (Dulbecco's modified Eagle medium) containing (in final concentrations) 10% FCS (fetal calf serum), 1% NEAA (non-essential amino acids), 2 mM Glutamin, 100 U/mL Penicillin and 100 μg/mL Streptomycin. Caco-2 cells were seeded either onto 24-well Transwell inserts (Corning, #3379) for bidirectional permeability assays at a density of 160,000 cells/cm^2 and cultured for 3 weeks, with media change on every second day.
For bidirectional permeability assays 10 mM DMSO stock solutions were diluted in transport buffer (final concentrations: 128.13 mM NaCl, 5.36 mM KCl, 1 mM MgSO4, 1.8 mM CaCl2, 4.17 mM NaHCO3, 1.19 mM Na2HPO4, 0.41 mM NaH2PO4, 15 mM 2-[4-(2-hydroxyethyl)piperazin-1-yl]ethanesulfonic acid (HEPES), 20 mM glucose, pH 7.4) containing 0.25% bovine serum albumin to a final concentration of 10 μM of the test compounds and added to the apical or basal compartment. Cells were incubated with the compounds for up to 2 h. Samples from the opposite compartment were taken at different timepoints.
Compound concentrations in the compartments were quantified using a RapidFire-based high-throughput HPLC/MS/MS system (high performance liquid chromatography/mass spectrometry; Bio-Cius) that was customized to a fully automated and flexible platform, termed RIAS. In this modified setup, the sample was aspirated by a vacuum pump into a 10 μL sample loop for 250 ms and flushed onto a C4 cartridge (3.8 μL bed volume; Bio-Cius) with the aqueous mobile phase (99.9% water, 0.09% formic acid, and 0.01% TFA; flow rate 1.5 mL/min). Prior to bioanalysis samples were spiked with internal standard solution and diluted with acetonitrile (ACN) for protein precipitation. Measurement was operated in multiplereaction monitoring (MRM) mode. Quantification was performed using external calibration. A solid-phase extraction step retained the analyte for 3000 ms while interfering matrix (e.g., buffer components) was removed. With a simple step gradient, the analyte was back-eluted from the cartridge for 3,000 ms with the organic mobile phase (99.9% acetonitrile/methanol [1:1, v:v], 0.09% formic acid, and 0.01% TFA) and flushed into the mass spectrometer at a flow rate of 1.25 mL/min. Afterwards, the cartridge was re-equilibrated with the aqueous mobile phase for 500 ms (flow rate 1.5 mL/min).
Apparent permeability coefficients in the apical to basal direction (Papp,AB) and in the basal to apical direction (Papp,BA) and efflux ratios were calculated as follows: Papp,AB=QAB/(C0·s·t) Papp,BA=QBA/(C0·s·t) Efflux ratio=Papp,BA/Papp,AB
where Q is the amount of compound recovered in the receiver compartment after the incubation time t, C0 the initial compound concentration given to the donor compartment, and s the surface area of the Transwell inserts. […] In addition, transepithelial electrical resistance (TEER) values are measured for each plate before the permeability assay, and total recovery in donor and receiver compartments was determined for each compound.

STING R232H-variant = target: T4, STING R232H-variant (Homo sapiens, UniProt Q86WV6); assay: IRF-inducible SEAP reporter assay in THP1-Blue ISG cells, STING R232H-variant; type: cell-based; conditions: 24 hours incubation
T4 construct: expressed in transfected cells; host or cells: THP1-Blue ISG hSTING KO clone, retroviral MSCV-ires-GFP-Blasti
Outline: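 THP1-Blue ISG cells, endogenous STING knocked out by CRISPR and re-expressing hSTING R232H, with IRF-inducible SEAP reporter. Treated 24 h at 37 °C with 8-point compound dilutions (0.5% DMSO final); SEAP read by Quanti-Blue OD 620 nm after 30 min. EC50 from four-parameter fit.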

[1] = Solubility measurements (HTS) at pH 6.8; type: physicochemical; conditions: kinetic from dmso stock; aqueous McIlvaine buffer pH 6.8, 24 h at room temperature, from 10 mM DMSO stock; read-out: Soblubility
Procedure: Aqueous solubilities were determined from 10 mM stock solutions of the compounds in DMSO diluted to a final concentration of 250 μM with aqueous McIlvaine buffer at pH 6.8, or with acetonitrile/water (1:1) as a reference. Samples were shaken for 24 h at room temperature in 96-well plates (Whatman Uniplate® 96 wells, 750 μL, polypropylene, round bottom). The plate was then centrifuged at 3,000 rpm for 2 min. 250 μL of each sample were transferred to a Millipore MultiScreenHTS filter plate with a polycarbonate membrane, pore size 0.45 μm. Filtrates were collected by centrifugation at 3,000 rpm for 2 min. The dissolved concentrations were determined by UPLC/UV (Ultra-Performance Liquid Chromatography/ultraviolet) on a Waters ACQUITY UPLC® SQD system equipped with a Waters ACQUITY UPLC® BEH 2.1×50 mm C18 column, particle size 1.7 μm, using a short gradient with water/0.1% formic acid as solvent A and acetonitrile/0.1% formic acid as solvent B (5 to 95% B with 1.7 min total cycle time). Compounds signals were measured with a photodiode array UV detector operated at 254 nm. Solubilities were determined with a one point calibration by comparing peak areas relative to the reference standard using Waters Empower software.

STING AQ-variant = target: T5, STING AQ-variant (Homo sapiens, UniProt Q86WV6, G230A/H232R/R293Q); assay: IRF-inducible SEAP reporter assay in THP1-Blue ISG cells, STING AQ-variant; type: cell-based; conditions: 24 hours incubation
T5 construct: expressed in transfected cells; host or cells: THP1-Blue ISG hSTING KO clone, retroviral MSCV-ires-GFP-Blasti
Outline: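 THP1-Blue ISG cells with endogenous STING knocked out by CRISPR and re-expressing the human STING AQ variant; compounds in 8-point dilution, final DMSO 0.5%, 24 h at 37 °C. SEAP read after 30 min with Quanti-Blue as OD 620 nm; EC50 and Hill slope from four-parameter fits.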

[2] = system: Human STING (hSTING, residues 155-341); assay: Interaction with hSTING as determined by Differential Scanning Fluorimetry (DSF); type: binding; conditions: 100 μM test compounds, 5 μM target protein
Outline: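 Thermal shift of hSTING (residues 155-341, 5 μM) with test compounds at 100 μM in 20 mM Tris, 150 mM NaCl, pH 7.5, using 5× SYPRO Orange. Ramped 25 to 95 °C at 0.5 °C per cycle (15 s/cycle) by real-time PCR fluorescence. Tm from duplicate melting curves, averaged.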

T3 sequence (Q86WV6 whole entry H232R/R293Q): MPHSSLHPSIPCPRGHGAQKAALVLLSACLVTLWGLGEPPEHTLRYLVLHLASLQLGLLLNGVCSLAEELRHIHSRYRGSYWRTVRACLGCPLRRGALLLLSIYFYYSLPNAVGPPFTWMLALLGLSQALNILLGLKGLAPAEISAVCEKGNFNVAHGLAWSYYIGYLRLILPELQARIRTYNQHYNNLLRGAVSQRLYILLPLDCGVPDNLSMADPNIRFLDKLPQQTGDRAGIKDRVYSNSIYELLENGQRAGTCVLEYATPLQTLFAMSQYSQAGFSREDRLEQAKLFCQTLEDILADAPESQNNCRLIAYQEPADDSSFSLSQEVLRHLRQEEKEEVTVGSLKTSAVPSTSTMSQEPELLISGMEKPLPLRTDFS
T4 sequence (Q86WV6 whole entry, stated change not applied): as the sequence (Q86WV6 whole entry H232R/R293Q) above, with R232H, Q293R counted along it
T5 sequence (Q86WV6 whole entry G230A/H232R/R293Q): as the sequence (Q86WV6 whole entry H232R/R293Q) above, with G230A counted along it
T1 sequence (Q86WV6 whole entry R71H/G230A/H232R/R293Q): as the sequence (Q86WV6 whole entry H232R/R293Q) above, with R71H, G230A counted along it
T2 sequence (Q86WV6 whole entry H232R): as the sequence (Q86WV6 whole entry H232R/R293Q) above, with Q293R counted along it

SMILES | EC50 (STING HAQ-variant) [µM] | EC50 (STING H232R-variant) [µM] | EC50 (STING R293Q-variant) [µM] | Papp A→B at 10 μM (in vitro) [×10⁻⁶ cm/s] | efflux ratio at 10 μM (in vitro) | EC50 (STING R232H-variant) [µM] | solubility kinetic at 24 h [1] [µg/mL] | EC50 (STING AQ-variant) [µM] | thermal shift (ΔTm) [2] [K]
Cc1cc(C)c2c(c1)c(-c1cccc3nn(C)cc13)nn2-c1ccc(N2CC3C(C2)C3C(=O)O)nc1 (stereo not shown) [compound 69, 3-(5-{2′,5,7-trimethyl-1H,2′H-[3,4′-biindazol]-1-yl}pyridin-2-yl)-3-azabicy-clo[3.1.0]hexane-6-car-boxylic acid] | 1.4 | 0.3 | 0.7 | 14 | 1 | 0.3 | 70 (≈ 146 µM) | 0.7 | 
Cn1cc2c(-c3nn(-c4ccc(N5CC6C(C5)C6C(=O)O)nc4)c4c(Cl)cccc34)cccc2n1 (stereo not shown) [compound 26, 3-(5-{7-chloro-2′-methyl-1H,2′H-[3,4′-biindazol]-1-yl}pyridin-2-yl)-3-azabicy-clo[3.1.0]hexane-6-carbox-ylic acid] | 0.9 | 0.2 | 0.6 |  |  | 0.2 | 60 (≈ 124 µM) | 0.7 | 
Cc1cccc2c(-c3cccc4nn(C)cc34)nn(-c3ccc(N4CC5C(C4)C5C(=O)O)nc3)c12 (stereo not shown) [Example #59, 3-(5-{2′,7-dimethyl-1H,2′H-[3,4′-biindazol]-1-yl}pyridin-2-yl)-3-azabicy-clo[3.1.0]hexane-6-car-boxylic acid] | 0.2 | 0.1 | 0.2 | 11 | 2.5 | 0.1 | 66 (≈ 142 µM) | 0.1 | 21
Cc1cccc2c(-c3cccc4nn(C)cc34)nn(-c3ccc(N4CCN(CC(=O)O)C(=O)C4)nc3)c12 [compound 58, 2-[4-(5-{2′,7-dimethyl-1H,2′H-[3,4′-biindazol]-1-yl}pyridin-2-yl)-2-oxopi-perazin-1-yl]acetic acid] | 6.8 |  |  |  |  |  | 84 (≈ 170 µM) |  | 23
Cc1cccc2c(-c3cccc4cnc(N(C)C)cc34)nn(-c3ccc(N4CCC(C(=O)O)CC4)nc3)c12 [Example #63, 1-(5-{3-[3-(dimethyla-mino)isoquinolin-5-yl]-7-methyl-1H-indazol-1-yl}pyridin-2-yl)piperidine-4-carboxylic acid] | 4.9 |  |  | 19 | 0.6 |  | 75 (≈ 148 µM) |  | 19
Cc1cccc2c(-c3cccc4c3OCO4)nn(-c3ccc(N4CC5C(C4)C5C(=O)O)nc3)c12 (stereo not shown) [compound 30, 3-(5-[3-(2H-1,3-benzodi-oxol-4-yl)-7-methyl-1H-in-dazol-1-yl]pyridin-2-yl}-3-azabicyclo[3.1.0]hexane-6-carboxylic acid] | 6.1 |  |  | 14 | 0.9 |  | 42 (≈ 92.4 µM) |  | 20
Cc1cccc2c(-c3cccc4cnccc34)nn(-c3ccc(N4CCC(C(=O)O)CC4)nc3)c12 [compound 62, 1-{5-[3-(isoquinolin-5-yl)-7-methyl-1H-indazol-1-yl]pyridin-2-yl}piperidine-4-carboxylic acid] | 3.1 |  |  | 11 | 1.2 |  | 49 (≈ 106 µM) |  | 20
Cc1c(CO)ccc2c(-c3cccc4nn(C)cc34)nn(-c3ccc(N4CC5C(C4)C5C(=O)O)nc3)c12 (stereo not shown) [compound 71, 3-{5-[6-(hydroxymethyl)-2′,7-dimethyl-1H,2′H-[3,4′-biindazol]-1-yl]pyri-din-2-yl}-3-azabicy-clo[3.1.0]hexane-6-car-boxylic acid] | 0.6 |  |  |  |  |  | 67 (≈ 135 µM) |  | 29
Cc1cccc2c(-c3cccc4nn(C)cc34)nn(-c3ccc(N4CCC(c5nn[nH]n5)CC4)nc3)c12 [Example #19, 2′,7-dimethyl-1-{6-[4-(2H-1,2,3,4-tetrazol-5-yl)piperi-din-1-yl]pyridin-3-yl}-1H,2′H-3,4′-biindazole] | 6.5 |  |  |  |  |  | 51 (≈ 104 µM) |  | 21
Cc1c(-c2cnn(C)c2)ccc2c(-c3cccc4nn(C)cc34)nn(-c3ccc(N4CC5C(C4)C5C(=O)O)nc3)c12 (stereo not shown) [Example #28, 3-{5-[2′,7-dimethyl-6-(1-methyl-1H-pyrazol-4-yl)-1H,2′H-[3,4′-biindazol]-1-yl]pyridin-2-yl}-3-azabicy-clo[3.1.0]hexane-6-carbox-ylic acid] | 0.08 |  |  |  |  |  | 87 (≈ 160 µM) |  | 27
Cc1cccc2c(-c3cccc4nn(C)cc34)nn(-c3ccc(N4CCC(C(=O)O)CC4)nc3)c12 [Example #57, 1-(5-(2′,7-dimethyl-1H,2′H-[3,4′-biindazol]-1-yl)pyridin-2-yl)piperidine-4-carboxylic acid] | 0.7 | 0.2 | 0.6 | 15 | 1.2 | 0.2 | 80 (≈ 171 µM) | 0.3 | 17
COc1cccc2c(-c3cccc4nn(C)cc34)nn(-c3ccc(N4CC5C(C4)C5C(=O)O)nc3)c12 (stereo not shown) [compound 29, 3-(5-{7-methoxy-2′-methyl-1H,2′H-[3,4′-biindazol]-1-yl}pyridin-2-yl)-3-azabicyclo[3.1.0]hex-ane-6-carboxylic acid] | 0.8 | 0.2 | 0.6 |  |  | 0.6 | 63 (≈ 131 µM) | 0.7 | 22
Cc1cc(C)c2c(c1)c(-c1cccc3nn(C)cc13)nn2-c1ccc(N2CCC(C(=O)O)CC2)nc1 [Example #70, 1-(5-{2′,5,7-trimethyl-1H,2′H-[3,4′-biindazol]-1-yl}pyridin-2-yl)piperidine-4-carboxylic acid] | 16.1 |  |  | 18 | 1.2 |  | 74 (≈ 154 µM) |  | 
